Data reported in patent US20240199608A1 (Eli Lilly and Company, priority 2022, published 2024).

Molecular target: T1, Human AhR (Homo sapiens, UniProt P35869)
T1 construct: expressed in transfected cells
T1 sequence (P35869 11-848): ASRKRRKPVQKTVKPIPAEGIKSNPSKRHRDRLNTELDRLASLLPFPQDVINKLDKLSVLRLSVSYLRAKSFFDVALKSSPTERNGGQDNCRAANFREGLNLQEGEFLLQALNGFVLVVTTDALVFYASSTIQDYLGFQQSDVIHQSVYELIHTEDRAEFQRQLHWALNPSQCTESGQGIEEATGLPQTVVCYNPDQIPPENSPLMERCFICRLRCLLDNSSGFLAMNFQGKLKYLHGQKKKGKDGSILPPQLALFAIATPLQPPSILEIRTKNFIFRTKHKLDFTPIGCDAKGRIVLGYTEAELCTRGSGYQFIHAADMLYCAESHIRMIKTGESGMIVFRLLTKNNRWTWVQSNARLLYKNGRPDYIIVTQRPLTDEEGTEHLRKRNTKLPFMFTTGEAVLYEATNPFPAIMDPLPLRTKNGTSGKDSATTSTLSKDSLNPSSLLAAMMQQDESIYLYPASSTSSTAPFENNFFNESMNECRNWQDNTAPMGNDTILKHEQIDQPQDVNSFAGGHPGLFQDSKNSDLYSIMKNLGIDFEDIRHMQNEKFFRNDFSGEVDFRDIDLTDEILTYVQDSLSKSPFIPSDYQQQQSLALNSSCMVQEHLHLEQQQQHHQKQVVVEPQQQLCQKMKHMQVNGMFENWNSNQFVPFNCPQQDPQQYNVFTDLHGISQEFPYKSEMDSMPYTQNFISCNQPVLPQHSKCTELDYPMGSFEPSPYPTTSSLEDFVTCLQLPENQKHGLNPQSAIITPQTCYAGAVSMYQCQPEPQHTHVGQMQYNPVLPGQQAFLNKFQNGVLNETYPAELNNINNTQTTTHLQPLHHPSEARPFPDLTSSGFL
Assay: hAHR Nuclear Translocation Assay
Assay type: cell-based
Details: AhR-EGFP nuclear translocation in Jump-In T-REx HEK293 cells, 45 minutes incubation; class symbols; read-out: Rel EC50
Description: The purpose of this assay is to measure the ability of compounds to bind to, activate, and induce the translocation of AhR into the nucleus of a cell for transcription. Stable cell lines were established using Jump-InTM T-RExTM HEK293 Retargeting Kit (Life Technologies). Human AhR cDNA was cloned into the pJTI R4 CMV-TO EGFP vector. The EGFP was cloned to the C-terminal of AHR to form AhR-EGFP chimera. The pJTI R4 CMV-TO AhR-EGFP vector was transfected using FuGENE® HD into Jump-InTM T-RExTM HEK293 cells. Transfected cells were selected using 2.5 mg/ml G418 for 10 to 14 days, then expanded, harvested, and suspended in freeze media (FBS with 8% DMSO) at 2×10^7 cells/ml, and aliquots were stored in liquid nitrogen. One day before the assay date, cells were thawed and resuspended in DMEM with 5% FBS in the presence of 1 μg/ml Doxycycline and plated into ploy-L-Lysine coated […]-384 ULTRA Microplates (Perkin Elmer) at 12,000 to 15,000 cells per well and incubated at 37° C. and 5% CO2 overnight. On the assay date, compound was serially diluted (1:2) into 384-well nunc plates with DMSO using acoustic dispensing (ECHO®). The dose response was a 20-point curve. […] The culture media was damped and 25 μl of DMEM plus 0.1% BSA was added, then 25 μL of compound in DMEM plus 0.1% BSA was added into cell plates. Cells were incubated compounds at 37° C. and 5% CO2 for 45 minutes. The final DMSO concentration was 0.2%. The media was damped after 45 minutes incubation. The cells were fixed with 40 μl of cold MeOH (-20° C.) for 20 minutes. The MeOH was damped and 50 μL of DPBS containing 1 μg/mL Hochst was added into the cell plates. The intensity of EGFP was quantitated by using Opera PHENIX® or OPERETTA® high content image system (Perkin Elmer) with 20× Water Objective and five field per well. The ratio of EGFP fluorescent intensity in nuclear over cytosol was analyzed using a 4-parameter nonlinear logistic equation to determine the potency of AhR agonists.

| EC50 | Compound |
| --- | --- |
| 0.001 to 0.01 µM | CC1CCc2c1cc(C(=O)Nc1ccns1)c1nncn21 (single isomer, unassigned) [Example 38, N-(Isothiazol-5-yl)-6-methyl-7,8-dihydro-6H-cyclopenta[e][1,2,4] triazolo[4,3-a]pyridine-4-carboxamide] |
| > 0.05 µM | CC1CCc2c1cc(C(=O)Nc1ccno1)c1nncn21 (single isomer, unassigned) [Example 44, N-(Isoxazol-5-yl)-6-methyl-7,8-dihydro-6H-cyclopenta[e][1,2,4] triazolo[4,3-a]pyridine-4-carboxamide] |
| 0.001 to 0.01 µM | CC1CCc2c1cc(C(=O)Nc1ncc(Cl)cn1)c1nncn21 (single isomer, unassigned) [Example 46, N-(5-Chloropyrimidin-2-yl)-6-methyl-7,8-dihydro-6H-cyclopenta[e][1,2,4] triazolo[4,3-a]pyridine-4-carboxamide] |
| > 0.05 µM | CC(C)OC1CCc2c1cc(C(=O)Nc1ncc(F)cn1)c1nncn21 (single isomer, unassigned) [Example 50, N-(5-Fluoropyrimidin-2-yl)-6-isopropoxy-7,8-dihydro-6H-cyclopenta[e][1,2,4] triazolo[4,3-a]pyridine-4-carboxamide] |
| > 0.05 µM | Cc1nnc2c(C(=O)Nc3ncc(F)cn3)cc3c(n12)CCC3C (single isomer, unassigned) [Example 53, N-(5-Fluoropyrimidin-2-yl)-1,6-dimethyl-7,8-dihydro-6H-cyclopenta[e][1,2,4] triazolo[4,3-a]pyridine-4-carboxamide] |
| 0.001 to 0.01 µM | CC(C)C1CCc2c1cc(C(=O)Nc1ncc(F)cn1)c1nncn21 (single isomer, unassigned) [Example 58, N-(5-Fluoropyrimidin-2-yl)-6-isopropyl-7,8-dihydro-6H-cyclopenta[e][1,2,4] triazolo[4,3-a]pyridine-4-carboxamide] |
| 0.01 to 0.05 µM | CCC(C)C1CCc2c1cc(C(=O)Nc1ncc(F)cn1)c1nncn21 (single isomer, unassigned) [Example 60, 6-(sec-butyl)-N-(5-Fluoropyrimidin-2-yl)-7,8-dihydro-6H-cyclopenta[e][1,2,4] triazolo[4,3-a]pyridine-4-carboxamide] |

Second part, the compound before the results:

| Compound | EC50 |
| --- | --- |
| CC1CCc2c1cc(C(=O)Nc1ccns1)c1nncn21 (single isomer, unassigned) [Example 39, N-(Isothiazol-5-yl)-6-methyl-7,8-dihydro-6H-cyclopenta[e][1,2,4] triazolo[4,3-a]pyridine-4-carboxamide] | 0.001 to 0.01 µM |
| CC1CCc2c1cc(C(=O)Nc1ccc(F)cn1)c1nncn21 (single isomer, unassigned) [Example 42, N-(5-Fluoropyridin-2-yl)-6-methyl-7,8-dihydro-6H-cyclopenta[e][1,2,4] triazolo[4,3-a]pyridine-4-carboxamide] | 0.001 to 0.01 µM |
| CC1CCc2c1cc(C(=O)Nc1ccc(F)cn1)c1nncn21 (single isomer, unassigned) [Example 43, N-(5-Fluoropyridin-2-yl)-6-methyl-7,8-dihydro-6H-cyclopenta[e][1,2,4]triazolo[4,3-a]pyridine-4-carboxamide] | 0.001 to 0.01 µM |
| CC1CCc2c1cc(C(=O)Nc1ccno1)c1nncn21 (single isomer, unassigned) [Example 45, N-(Isoxazol-5-yl)-6-methyl-7,8-dihydro-6H-cyclopenta[e][1,2,4] triazolo[4,3-a]pyridine-4-carboxamide] | 0.01 to 0.05 µM |
| CC1CCc2c1cc(C(=O)Nc1ncc(Cl)cn1)c1nncn21 (single isomer, unassigned) [Example 47, N-(5-Chloropyrimidin-2-yl)-6-methyl-7,8-dihydro-6H-cyclopenta[e][1,2,4] triazolo[4,3-a]pyridine-4-carboxamide] | 0.001 to 0.01 µM |
| COc1cnc(NC(=O)c2cc3c(n4cnnc24)CCC3C)nc1 (single isomer, unassigned) [Example 48, N-(5-Methoxypyrimidin-2-yl)-6-methyl-7,8-dihydro-6H-cyclopenta[e][1,2,4] triazolo[4,3-a]pyridine-4-carboxamide] | 0.01 to 0.05 µM |
| COc1cnc(NC(=O)c2cc3c(n4cnnc24)CCC3C)nc1 (single isomer, unassigned) [Example 49, N-(5-Methoxypyrimidin-2-yl)-6-methyl-7,8-dihydro-6H-cyclopenta[e][1,2,4] triazolo[4,3-a]pyridine-4-carboxamide] | 0.01 to 0.05 µM |
| CC(C)OC1CCc2c1cc(C(=O)Nc1ncc(F)cn1)c1nncn21 (single isomer, unassigned) [Example 51, N-(5-Fluoropyrimidin-2-yl)-6-isopropoxy-7,8-dihydro-6H-cyclopenta[e][1,2,4] triazolo[4,3-a]pyridine-4-carboxamide] | > 0.05 µM |
| Cc1nnc2c(C(=O)Nc3ncc(F)cn3)cc3c(n12)CCC3C (single isomer, unassigned) [Example 52, N-(5-Fluoropyrimidin-2-yl)-1,6-dimethyl-7,8-dihydro-6H-cyclopenta[e][1,2,4] triazolo[4,3-a]pyridine-4-carboxamide] | > 0.05 µM |
| CC(C)c1nnc2c(C(=O)Nc3ncc(F)cn3)cc3c(n12)CCC3C (single isomer, unassigned) [Example 54, N-(5-Fluoropyrimidin-2-yl)-1-isopropyl-6-methyl-7,8-dihydro-6H-cyclopenta[e][1,2,4] triazolo[4,3-a]pyridine-4-carboxamide] | > 0.05 µM |
| CC(C)c1nnc2c(C(=O)Nc3ncc(F)cn3)cc3c(n12)CCC3C (single isomer, unassigned) [Example 55, N-(5-Fluoropyrimidin-2-yl)-1-isopropyl-6-methyl-7,8-dihydro-6H-cyclopenta[e][1,2,4] triazolo[4,3-a]pyridine-4-carboxamide] | > 0.05 µM |
| CCC1CCc2c1cc(C(=O)Nc1ncc(F)cn1)c1nncn21 (single isomer, unassigned) [Example 56, 6-Ethyl-N-(5-fluoropyrimidin-2-yl)-7,8-dihydro-6H-cyclopenta[e][1,2,4] triazolo[4,3-a]pyridine-4-carboxamide] | 0.001 to 0.01 µM |
| CCC1CCc2c1cc(C(=O)Nc1ncc(F)cn1)c1nncn21 (single isomer, unassigned) [Example 57, 6-Ethyl-N-(5-fluoropyrimidin-2-yl)-7,8-dihydro-6H-cyclopenta[e][1,2,4] triazolo[4,3-a]pyridine-4-carboxamide] | 0.001 to 0.01 µM |
| CC(C)C1CCc2c1cc(C(=O)Nc1ncc(F)cn1)c1nncn21 (single isomer, unassigned) [Example 59, N-(5-Fluoropyrimidin-2-yl)-6-isopropyl-7,8-dihydro-6H-cyclopenta[e][1,2,4] triazolo[4,3-a]pyridine-4-carboxamide] | 0.01 to 0.05 µM |
| CC1CCc2c1cc(C(=O)Nc1cnn(C)n1)c1nncn21 (single isomer, unassigned) [Example 61, 6-Methyl-N-(2-methyl-2H-1,2,3-triazol-4-yl)-7,8-dihydro-6H-cyclopenta[e][1,2,4] triazolo[4,3-a]pyridine-4-carboxamide] | 0.001 to 0.01 µM |
| CC1CCc2c1cc(C(=O)Nc1cnn(C)n1)c1nncn21 (single isomer, unassigned) [Example 62, 6-Methyl-N-(2-methyl-2H-1,2,3-triazol-4-yl)-7,8-dihydro-6H-cyclopenta[e][1,2,4] triazolo[4,3-a]pyridine-4-carboxamide] | 0.01 to 0.05 µM |
